# Measured values published in US7097825B2, “Methods and reagents to acquire MRI signals and images” (Allos Therapeutics, Inc., priority 2001, dated 2006).
# Key:
# [1] = system: NCI-H460 human large cell lung carcinoma xenografts; test: BOLD MRI signal ratio in tumors after RSR13 injection; type: in vivo, athymic nude mice; conditions: for Change in BOLD MRI signal: (Intensity (t = 30 min)/Intensity (t = 0)): 30 min after injection, preliminary
# Experimental: (§1) NCI-H460 human large cell lung carcinoma cells were obtained from the American Type Culture Collection (ATCC). H460 cells were cultured at 37° C., 5% CO2 in RPMI 1640 medium (Gibco BRL, Gaithersburg, Md.)+10% fetal bovine serum (Gibco)+50 U/ml penicillin (Gibco)+50 μg/ml streptomycin (Gibco). Cells were routinely passaged using 0.05% trypsin-EDTA. Human NIH-H460 cells were used as a xenograft model in female athymic nude mice (nu/nu, 5–6 weeks old). Cells at 80% confluence were trypsinized, resuspended in growth medium, and counted. Cells were then centrifuged and resuspended in 37° C. PBS at 2×10^7 cells/ml. A suspension of 2×10^6 cells in a 0.1 ml volume was injected subcutaneously (s.c.) into the left posterior flank. Tumors were allowed to grow for 2 weeks (about 1 cm^3) before imaging, or for 7 days prior to treatment with RSR13 and radiation.
# Mice with tumors were anesthetized with 0.05 cc of a ketamine (100 mg/ml) and acepromezine (2.5 mg/0.25 ml) cocktail (induction anesthesia). A 24G angiocath, attached to a syringe with the appropriate amount of RSR13, was then placed and secured intraperitoneally (i.p.). Mice were placed in a pre-warmed anesthesia chamber and the surface coil was positioned over the tumor. The entire assembly was then placed into a Varian 4.7T small bore MR scanner. The anesthesia chamber was then infused with a mixture of 98.5% room air and 1.5% isoflurane (maintenance anesthesia) at a rate of 1.5 L/min throughout the experiment. After scout images were obtained to localize the tumor, serial gradient echo images were obtained at ten-minute intervals over a total of 60 minutes. RSR13 was supplied as a 20-mg/ml stock solution, which was diluted with sterile phosphate-buffered saline (PBS) prior to experiments to achieve the desired dose (mg/kg) per […]. At the start of acquisition of the second image (“time 0”), a dose of RSR13 was injected i.p. RSR13 doses were administered in 0.3 ml volumes; control mice were given injections of saline. Preliminary experiments were performed to optimize the BOLD contrast, first by imaging mouse tumors without any drug, and then by administering different doses of RSR13. A dose of 200 mg/kg was then chosen for further studies. Parameters for BOLD-MRI scans were chosen to maximize sensitivity to oxygen dependent changes in the relaxation parameter T2*. The following MRI parameters were used: TR=520 ms, TE=27 ms, flip angle=45°, 18 signal averages, 230 μm spatial resolution, matrix=128×128, bandwidth=37.4 kHz, field of view=3×3 cm. Color maps indicating percent increase in signal relative to the baseline gradient echo image were created for each image. Color maps were overlaid on corresponding spin echo images for anatomic reference. After images were acquired, each individual tumor (at t=30 min.) was examined slice by slice, and a single slice which was most representative of the entire tumor was chosen. Within each representative slice, a 15×15-pixel regions of interest (ROI) was drawn around the area of maximum signal intensity (about 25% of the tumor slice area). The voxel size was 0.23 mm×0.23 mm×1 mm; thus the slice thickness was 1 mm. The same slice and ROI were then used to calculate the signal ratio corresponding to the other times for the same tumor. The following signal ratio was calculated: Intensity (t)/Intensity (t=0 min). Based on the signal parameters listed above, the MRI signal intesnsity is proportional to the MR relaxation time, T*2, which is linearly related to the level of oxygen saturation. See, e.g. Ogawa, et al., Magn. Reson. Med. 29:205–10 (1993). Images were analyzed in a blind fashion in the dose dependence studies, without knowledge of the drug doses used, to eliminate observer bias.
# A paired t-test was applied to test the differences between baseline and follow-up time points. All tests of significance were two-sided, and differences were considered statistically significant when the P value was≦0.05. […]
# [2] = system: NCI-H460 human large cell lung carcinoma xenografts; test: Tumor growth delay, RSR13 and/or radiation; type: in vivo, athymic nude mice; conditions: for Tumor growth delay: n=4
# Experimental: as §1
# Tumors on the flanks of mice were irradiated using an Eldorado-8 ^60Co γ irradiator (Neutron Products, Inc., Dickerson, Md.). The dose rate was 1.18 Gy/min, at an SSD of 56.5 cm. The non-tumor parts of mice were shielded using lead blocks. Mice were irradiated using restraining devices constructed from 50 ml conical polyethylene tubes taped to a Styrofoam pad. Mice were irradiated 30 min after administration of RSR13 (given by intraperitoneal injection).
# Tumors were measured three times weekly in two perpendicular dimensions using Vernier calipers. Volumes were calculated using the formula: volume=0.4* ab^2 (a=long dimension, b=short dimension). Treatment began when tumors reached an average volume of about 0.3 cm^3. Growth delay time (GD) was calculated as the time for treated tumors to double in volume minus the time for control tumors to double in volume, with t=0 defined as the first day of treatment. Treatment groups consisted of either untreated control, radiation alone, RSR13 alone, or RSR13 plus radiation. Each treatment group contained four mice.
# A paired t-test was applied to test the differences between baseline and follow-up time points. […]
# tumors = conditions: previous studies, fractionated radiotherapy; cited from earlier work
# hemoglobin = molecular target: T1, hemoglobin (Mus musculus, UniProt P01942+P02088); conditions: 20–40 min after 300 mg/kg RSR13 injection into mice; cited from earlier work
# T1 construct: after a 300 mg/kg RSR13 injection into mice; host or cells: blood (erythrocytes) of mice injected with RSR13; endogenous hemoglobin
# T1 sequence (P01942 2-142 limits assumed): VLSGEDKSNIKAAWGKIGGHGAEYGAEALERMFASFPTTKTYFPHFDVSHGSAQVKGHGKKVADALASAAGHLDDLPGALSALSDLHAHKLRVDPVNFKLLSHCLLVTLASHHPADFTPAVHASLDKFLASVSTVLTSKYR
# T1 sequence (P02088 2-147 limits assumed): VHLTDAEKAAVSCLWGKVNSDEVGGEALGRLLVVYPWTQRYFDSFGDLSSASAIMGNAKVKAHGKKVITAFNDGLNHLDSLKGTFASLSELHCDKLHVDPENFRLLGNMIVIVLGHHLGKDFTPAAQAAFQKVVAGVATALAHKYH
compound,measurement,setting,value
"Cc1cc(C)cc(NC(=O)Cc2ccc(OC(C)(C)C(=O)O)cc2)c1 [RSR13, 2-[4-(((3,5-dimethylanilino)carbonyl)methyl)phenoxy]-2-methylpropionic acid]",Increase of MRI signal ratio between t=10 and 30 min,"[1]; 200 mg/kg i.p., n=8, P=0.04",14%
same,Increase of MRI signal ratio between t=10 and 20 min,"[1]; 200 mg/kg i.p., n=8, P=0.05",9%
same,"Changes of MRI signal ratio between t=10 and 40, 50, or 60 min","[1]; 200 mg/kg i.p., n=8, P≧0.05",not statistically significant
same,Time of maximum MRI signal ratio after RSR13 injection,"[1]; 200 mg/kg i.p., n=8 mice",30 min
same,"Increase in signal in tumor tissue ROI, normalized to signal at time zero","[1]; FIG. 9, H460 tumor ROI 1, about two hours after time zero injection",~20%
same,Change in BOLD MRI signal: (Intensity (t = 30 min)/Intensity (t = 0)),"[1]; RSR13 100 mg/kg i.p., 1 mouse (Mouse B)",1.13
same,Change in BOLD MRI signal: (Intensity (t = 30 min)/Intensity (t = 0)),"[1]; RSR13 200 mg/kg i.p., 1 mouse (Mouse C)",1.20
same,Change in BOLD MRI signal: (Intensity (t = 30 min)/Intensity (t = 0)),"[1]; RSR13 300 mg/kg i.p., 1 mouse (Mouse D)",1.19
same,Dose at which the signal ratio reached a plateau,"[1]; doses 0, 100, 200, 300 mg/kg, t=30 min",200 mg/kg
same,Enhancement factor (growth delay RSR13 plus radiation / radiation alone),"[2]; 6.6/2.4, 200 mg/kg, 10 Gy 30 min later",2.8
same,Tumor growth delay,"[2]; RSR13 200 mg/kg i.p. plus radiation 10 Gy given 30 min later, radiation alone 2.4 days",6.6 days
same,Tumor growth delay,"[2]; RSR13 alone, 200 mg/kg i.p.",did not affect tumor growth delay
same,Enhancement ratios (dose modifying factors),tumors,1.3–1.8
same,Mean increase of pO2 at 50% hemoglobin saturation,hemoglobin,53%
